Assay results taken from PMC11249626, “Fluorophore-Labeled Pyrrolones Targeting the Intracellular Allosteric Binding Site of the Chemokine Receptor CCR1” (ACS Pharmacology & Translational Science, 2024).
Where two headings read alike, the source gives them in different places.

Experiments:
CCR1 [1] = molecular target: T1, CCR1 (Homo sapiens, UniProt P32246); assay: Membrane-based NanoBRET competition assay with 12 (2000 nM) and CCR1_Nluc membranes; format: binding; parameters: Promega pNLF1-C (Nluc) #CCR010TN00; host or cells: HEK293T, transient (PEI); conditions: 12 (2000 nM); for % inh. of tracer binding, CCR1 / CCR1 inhibition class (n.i.): compound at 20 μM
T1 sequence (P32246 1-355): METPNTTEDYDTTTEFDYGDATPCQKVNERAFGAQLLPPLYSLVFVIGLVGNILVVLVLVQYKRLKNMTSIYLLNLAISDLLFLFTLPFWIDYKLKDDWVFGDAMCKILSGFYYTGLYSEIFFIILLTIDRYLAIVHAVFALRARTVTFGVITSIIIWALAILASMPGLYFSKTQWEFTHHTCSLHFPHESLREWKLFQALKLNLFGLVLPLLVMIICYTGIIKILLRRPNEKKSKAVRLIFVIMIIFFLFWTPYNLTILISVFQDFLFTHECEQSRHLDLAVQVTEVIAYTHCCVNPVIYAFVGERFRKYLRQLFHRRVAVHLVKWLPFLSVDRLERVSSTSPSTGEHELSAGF

CCR2 = molecular target: T2, CCR2 (Homo sapiens, UniProt P41597); assay: NanoBRET competition binding assay for CCR2 based on 7, as previously reported; conditions: for inhibition at 20 µM: compound at 20 μM
T2 construct: host or cells: HEK293T, transient
T2 sequence (P41597 1-360 isoform P41597-2): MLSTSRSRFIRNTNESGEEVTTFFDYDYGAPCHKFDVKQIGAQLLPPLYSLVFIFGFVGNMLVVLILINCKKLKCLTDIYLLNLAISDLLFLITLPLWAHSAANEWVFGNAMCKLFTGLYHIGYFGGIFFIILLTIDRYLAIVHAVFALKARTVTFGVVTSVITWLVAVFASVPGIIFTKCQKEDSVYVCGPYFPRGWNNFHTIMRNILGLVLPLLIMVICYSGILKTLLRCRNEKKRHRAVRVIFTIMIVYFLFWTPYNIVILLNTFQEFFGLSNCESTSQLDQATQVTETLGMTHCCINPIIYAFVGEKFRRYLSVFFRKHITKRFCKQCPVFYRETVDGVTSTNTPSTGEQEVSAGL
Description: With 6 (Figure 1), a first lead structure for intracellular CCR1 inhibition that features an approximately 20-fold CCR1 over CCR2 selectivity was previously discovered by Ortiz Zacarías et al.([33]) In order to discover new chemotypes for selective CCR1 over CCR2 inhibition, we aimed to apply our novel NanoBRET competition binding assay for CCR1 in combination with our recently published CCR2 competition binding assay based on 7.[47] In our first attempt, we screened a small in-house library enriched with intracellular GPCR ligands and structural analogues thereof. […] Additionally, we tested 23 for binding to the IABS of CCR9 and CXCR2 using our recently reported NanoBRET-based assay platform (Figure 6C).[44],[45] In the course of these studies, we detected no binding of 23 to CCR9 and CXCR2 up to a concentration of 20 μM. Since cell lineage-dependent effects have been observed for CCR1 antagonists,[59] we studied the CCR1 over CCR2 selectivity of 23 by using a previously reported radioligand binding assay with membrane preparations from osteosarcoma (U2OS) cells stably expressing human CCR1 or CCR2.[33] […] In agreement with these previous reports,[33] we observed a reduction in CCR1 over CCR2 selectivity when moving from membrane-based binding assays to cell-based functional assays. […] To investigate a potential signaling bias of 23, we tested the compound by means of a NanoBiT miniGi recruitment assay.[60] […] Thus, this indicated no strong signaling bias of 23 (Figures S9E and S10C). To elucidate the SAR of this new scaffold for selective CCR1 over CCR2 inhibition, we synthesized several analogues of 23 (24–40) and tested them by means of our NanoBRET competition binding assays (Schemes S2 and S3, Table 1, Figures 6F and S11). First, we aimed to examine the impact of the stereochemistry of 23 on CCR1 affinity. As for the structurally related pyrrolone 4, large differences in CCR2 affinity between the eutomer 4-[R] and the distomer 4-[S] were described.[61] […] Furthermore, we identified the 4-hydroxyphenethyl group at position 1 of the pyrrolone scaffold as highly important for CCR1 affinity and selectivity. Its presence seems to block CCR2 binding, also when combined with the structural features of the high-affinity CCR2 ligand 5, as exemplified by 24. Especially the 4-hydroxy group at this moiety is essential for CCR1 binding (see 25 and 26). […] In position 5 of the pyrrolone, several aromatic and aliphatic substituents were tolerated (see 31–35).

CCR1 [2] = molecular target: T1, CCR1; assay: Live cell NanoBRET binding assay, HEK293T cells expressing CCR1_Nluc; parameters: Promega pNLF1-C (Nluc) #CCR010TN00; host or cells: HEK293T, transient (PEI); conditions: 12 (1000 nM), live HEK293T cells
[3] = CCR1_Nluc membranes, read-out: Ki, CCR1 (Figure 5B)
[4] = CCR1_Nluc membranes, read-out: pKi ± SEM, CCR1 (converted)
[5] = CCR1_Nluc membranes, read-out: Ki, CCR1 (converted)
[6] = read-out: % inh. of tracer binding, CCR2
[7] = read-out: CCR2 inhibition class (n.i.)

Ki (CCR1 [1]; [4]) [nM] | Ki (CCR1 [1]; [5]) [nM] | inhibition at 20 µM (CCR2; [7]) [%] | Compound | also measured
 |  | < 10 | O=C(C1=C(O)C(=O)N(CCc2ccc(O)cc2)C1c1ccc(F)cc1)C1CC1 (centres unmarked) [compound 36] | % inh. of tracer binding, CCR1 (CCR1 [1]): 25% @ 20 μM
209 | 216 |  | O=C(C1=C(O)C(=O)N(CCc2ccc(O)cc2)C1c1ccc(F)cc1)c1ccccc1 (single isomer, unassigned; (-)) [(-)-23] | inhibition at 20 µM (CCR2; [6]): 27%
 | 97.6 |  | COCc1cn(CCCC(=O)C2=C(O)C(=O)N(c3ccc(Br)cc3F)C2C2CCCCC2)nn1 (centres unmarked) [compound 10] | 
 | 65.7 | < 10 | O=C(C1=C(O)C(=O)N(CCc2ccc(O)cc2)C1c1ccc(F)cc1)c1ccccc1 (single isomer, unassigned; (+)) [(+)-23] | 
 | 354 |  | O=C(O)c1ccc(Oc2ncc(Cl)cc2NS(=O)(=O)c2ccc(Cl)c(C(F)(F)F)c2)cc1 [compound 19, reference compound] | Ki (CCR1 [1]; [3]): 350 nM
2630 |  |  | CC(C)(C)c1ccc(S(=O)(=O)Nc2ccc(Cl)cc2-c2cncnc2N)cc1 [compound 22, reference compound] | Ki (CCR1 [1]; [3]): 2950 nM
219 | 231 |  | O=C(C1=C(O)C(=O)N(CCc2ccc(O)cc2)C1C1CCCCC1)c1ccccc1 (centres unmarked) [compound 34] | inhibition at 20 µM (CCR2; [6]): 37%
 | 291 |  | O=C(C1=C(O)C(=O)N(CCc2ccccc2O)C1c1ccc(F)cc1)c1ccccc1 (centres unmarked) [compound 28] | inhibition at 20 µM (CCR2; [6]): 49%
182 | 189 |  | O=C(C1=C(O)C(=O)N(CCc2ccc(O)cc2)C1c1ccc(Br)cc1)c1ccccc1 (centres unmarked) [compound 31] | inhibition at 20 µM (CCR2; [6]): 19%

Further lines, the compound ahead of its results:

Compound | Ki (CCR1 [1]; [4]) [nM] | Ki (CCR1 [1]; [5]) [nM] | inhibition at 20 µM (CCR2; [7]) [%] | also measured
CC(C)(C)c1ccc(S(=O)(=O)Nc2ccc(Cl)cc2C(=O)c2cc[n+]([O-])cc2)cc1 [compound 21, reference compound] | 2950 |  |  | Ki (CCR1 [1]; [3]): 3130 nM
CC(=O)C1=C(O)C(=O)N(c2ccc(Br)cc2)C1c1ccccc1[N+](=O)[O-] (centres unmarked) [compound 41] |  |  |  | % inh. of tracer binding, CCR1 (CCR1 [1]): ≥ 50%
CCL7: orthosteric CCR1 agonist chemokine, also referred to as MCP-3 |  |  |  | Competition with 12 at CCR1 (CCR1 [1]; CCR1_Nluc membranes): no competition
O=C(C1=C(O)C(=O)N(Cc2ccc(O)cc2)C1c1ccc(F)cc1)c1ccccc1 (centres unmarked) [compound 29] | 120 | 130 |  | inhibition at 20 µM (CCR2; [6]): 42%
O=C(C1=C(O)C(=O)N(CCc2ccc(O)cc2)C1c1ccc(F)cc1)c1cccc(O)c1 (centres unmarked) [compound 39] |  |  | < 10 | % inh. of tracer binding, CCR1 (CCR1 [1]): 38% @ 20 μM
O=C(C1=C(O)C(=O)N(CCc2cccc(O)c2)C1c1ccc(F)cc1)c1ccccc1 (centres unmarked) [compound 27] | 178 | 184 | < 10 | 
O=C(C1=C(O)C(=O)N(CCc2ccc(O)cc2)C1c1ccc(F)cc1)c1ccc(O)cc1 (centres unmarked) [compound 38] |  |  |  | % inh. of tracer binding, CCR1 (CCR1 [1]): 42% @ 20 μM; inhibition at 20 µM (CCR2; [6]): 19%
O=C(C1=C(O)C(=O)N(c2ccc(O)cc2)C1c1ccc(F)cc1)c1ccccc1 (centres unmarked) [compound 30] |  |  | < 10 | % inh. of tracer binding, CCR1 (CCR1 [1]): 32% @ 20 μM
O=C(C1=C(O)C(=O)N(CCc2ccc(O)cc2)C1c1ccccc1)c1ccccc1 (centres unmarked) [compound 35] | 257 | 279 | < 10 | 
Cc1ccc(S(=O)(=O)Nc2ccc(Cl)cc2C(=O)c2ccccc2)cc1 [compound 42] |  |  |  | % inh. of tracer binding, CCR1 (CCR1 [1]): ≥ 50%
O=C(C1=C(O)C(=O)N(CCc2ccc(O)cc2)C1c1cccc(Br)c1)C1CC1 (centres unmarked) [compound 37] |  |  | < 10 | CCR1 inhibition class (n.i.) (CCR1 [1]): n.i. (no inhibition (percentual inhibition at 20 μM < 10%))
O=C(C1=C(O)C(=O)N(CCc2ccc(F)cc2)C1c1ccc(F)cc1)c1ccccc1 (centres unmarked) [compound 26] | 871 | 952 | < 10 | 
O=C(C1=C(O)C(=O)N(c2ccc(Br)cc2F)C1c1ccc(F)cc1)c1ccccc1 (centres unmarked) [compound 40] |  | 224 |  | Ki (CCR2; NanoBRET competition, tracer 7): 7830 nM
CC[C@@H](Nc1c(Nc2cccc(C(=O)N(C)C)c2O)c(=O)c1=O)c1ccc(C)o1 [compound 20, reference compound] | 2240 |  |  | Ki (CCR1 [1]; [3]): 2340 nM
CC(=O)C1=C(O)C(=O)N(CCc2ccc(O)cc2)C1C1CCCCC1 (centres unmarked) [compound 24] |  |  |  | CCR1 inhibition class (n.i.) (CCR1 [1]): n.i. (no inhibition (percentual inhibition at 20 μM < 10%)); inhibition at 20 µM (CCR2; [6]): 10%
O=C(C1=C(O)C(=O)N(CCc2ccccc2)C1c1ccc(F)cc1)c1ccccc1 (centres unmarked) [compound 25] | 955 | 997 | < 10 | 
O=C(C1=C(O)C(=O)N(CCc2ccc(O)cc2)C1c1cccc(Br)c1)c1ccccc1 (centres unmarked) [compound 32] | 178 | 195 | < 10 | 
CC(C)C[C@H](CO)Nc1nc(S[C@@H](C)c2ccccc2)nc2nc(N)sc12 [compound 18, reference compound] | 72.4 | 75.6 |  | Ki (CCR1 [2]; read-out: Ki, live cells): 98.3 nM; Ki (CCR1 [2]; read-out: pKi ± SEM, live cells (converted)): 93.3 nM
O=C(C1=C(O)C(=O)N(CCc2ccc(O)cc2)C1c1ccc(Cl)cc1)c1ccccc1 (centres unmarked) [compound 33] | 191 | 200 |  | inhibition at 20 µM (CCR2; [6]): 18%
CS(=O)(=O)c1cc(C2(NC(=O)c3cncc4c3cnn4-c3ccc(F)cc3)CC2)ccn1 [compound 3, reference compound] |  |  |  | Enhancement of CCR1 binding of 12 (CCR1 [1]; CCR1_Nluc membranes): ~150%
